Where two headings read alike, the source gives them in different places.
Tests used:
[1] = test system: P388 D1 cells; test: P388 D1 colony-forming assay; format: cell-based; conditions: Mus musculus
Experimental: B) P338D1 Colony-forming Assay
In this assay, cells from an in vitro-adapted line of the mouse lymphoid neoplasm, P388 are first exposed to serially diluted concentrations of test compound over a 24 hour period in culture. Thereafter, the ability of such treated cells to form discrete colonies over a 14 day period after resuspension in a semi-solid drug-free medium is determined.
Initially cells in log growth are plated into individual 25 cm^2 tissue culture flasks each containing a final volume of 5 mls of Hepes buffered RPMI 1640 culture medium supplemented with 10 percent foetal calf serum, antibiotics and test compound. All compounds are formulated initially at appropriate concentrations in DMSO, 25 microliters of which is then added to each flask. All compounds are evaluated at concentrations ranging serially in four fold decrements from a top concentration some four fold greater than that already known to inhibit the proliferation of these cells by about 80 to 90 percent in the primary proliferative assay.
After 24 hrs exposure to the test compound the cells are counted and a known number of live cells transferred to a 15 ml centrifuge tube to which 4 mls of a 0.25 percent low temperature gelling agarose solution in complete RPMI tissue culture medium is then added. After 13 days incubation at 37° C., 1 ml of 1% p-Iodonitrotetrazolium violet is added to the top of each tube and allowed to permeate through the agarose for a further 24 to 48 hrs. This dye is metabolised by living cells to produce an insoluble red crystalline product which facilitates counting of the colonies. Samples are taken from each tube and the number of colonies containing a minimum of 50 cells is determined. The concentration of compound necessary to inhibit colony formation by 50 percent relative to that of control cells incubated under identical conditions but in the absence of the test compound is determined.

[2] = test system: DLD-1 human colon carcinoma cells; test: In vitro activity against human tumour cell line DLD-1 (proliferation); format: cell-based; conditions: DLD-1, 96 h
Experimental: (§1) Cells from the human tumour cell lines DLD-1, HCT-116, WiDr and A549 are exposed to serially diluted concentrations of test compounds over a 96 hour period in culture. The ability of such cells to proliferate over the test period is determined.
(§2) Cells in log growth are plated into 96 well multiwell tissue culture dishes in 100 μl/well of RPMI 1640 culture medium supplemented with 10% foetal calf serum, antibiotics and test compound. All compounds are formulated initially at appropriate concentrations in DMSO, the final concentrations in this solvent being twenty times that required in the plate. A final 1 in 10 dilution in complete medium is then made before adding 100 μl to each well of the plate. All compounds are evaluated at concentrations ranging serially in four fold decrements from a top concentration some four fold greater than that already known to inhibit the proliferation of cells from the mouse lymphoid neoplasm, P388D1 by about 80 to 90 percent in a primary proliferative assay.
(§3) After 96 hours the proliferation of cells exposed to test compound is compared with control untreated cells by one of two methods:
a) Culture supernatants are aspirated and cells fixed and stained by adding a solution of methylene blue (5 g per liter of 50% ethanol: water, 100 μl/well). After 30 minutes at room temperature unbound stain is washed off by immersing plates in water. Stained cells are solubilised overnight using 1% Sarkosyl (Sigma) in phosphate-buffered saline (100 μl/well). Absorbances are read by an ELISA plate spectrophotometer at a wavelength of 620 nm. The IC50 is defined as that concentration of drug which decreases absorbance to 50% of that in control (drug-free) cultures. This method is used for the DLD-1 cell line.

[3] = test system: P388/O tumour; test: Lymphocytic leukaemia P388/O test; format: in vivo, mouse
Experimental: C. Lymphocytic Leukemia P388/O Test
CD2-F1 mice, of the same sex, weighing within a 3 gram range surrounding 20 g, are used for this test. Control and test animals are injected intraperitoneally with a suspension of 10^6 viable P388/O tumour cells on day 0. In each test several dose levels which bracket the LD20 for the compound are evaluated; each dose level group contains 6 animals. The test compounds are prepared either in physiologic saline containing 0.05% Tween 80 or distilled water containing 5% dextrose and are administered intraperitoneally on days 1,5 and 9 relative to tumour implant. Doses are on a mg/kg basis according to individual animals' body weights. The day of death for each animal is recorded and the median day of death identified for each group. The difference between the median survival time for treated and control groups is expressed as a percentage increase in life span (% ILS).

[4] = test system: A549 human lung carcinoma cells; test: In vitro activity against human tumour cell line A549 (proliferation); format: cell-based; conditions: A549, 96 h
Experimental: as §1, §2, §3
(§4) b) 20 μl of MTT (5 mg/ml in PBS) is added to each well. After an incubation period of 4 hours the medium from each well is aspirated and replaced with 200 μl DMSO to dissolve the formazan crystals formed. Absorbances are read by an ELISA plate spectrophotometer at a wavelength of 540 nm. The IC50 is defined as that concentration of drug which decreases absorbance to 50% of that in control (drug-free) cultures. This method is used for the WiDr, HCT-116 and A549 cell lines.

[5] = test system: tubulin; test: Turbidimetric assay of tubulin polymerisation; format: biochemical, horse; conditions: 37° C., increase in A350nm 10 min after lag phase; read-out: Total tubulin polymerisation IC50
Experimental: A) Tubulin Polymerisation Assay
1. Preparation of tubulin
All manipulations are performed at 4° C. unless otherwise specified. The horse brain is washed in ice-cold BBG buffer and superficial meninges and blood vessels removed. After weighing, cerebral cortices are chopped, homogenised in 75 ml BBG buffer/100 g brain, centrifuged at 6500 g for 15 min and after removal of […], re-centrifuged at 100,000 g for 75 min. The volume of the supernatant (Vml) is measured and V/10 ml 10 mM GTP (Li salt) in H2 O added. The mixture is incubated in sealed centrifuge tubes (30 min, 34° C.) in a shaking water bath to polymerise the tubulin. After polymerisation the tubes are balanced and centrifuged at 100,000 g, (1 h at 27° C.) in a pre-warmed rotor. The high-speed pellet is resuspended in V/4 ml BB buffer and the preparation stirred on ice for 30 min and centrifuged at 100,000 g (1 h at 4° C.) to remove the cold-stable microtubules. An equal volume of BB2G buffer is added to the supernatant which is frozen rapidly in 5 ml samples in plastic weighing dishes floated on a solid CO2 /ethanol slurry, and stored overnight at -80° C. After ca. 18 hours the frozen samples of tubulin are thawed, 10 mM GTP in H2 O added to give a final concentration of 1 mM, and the new volume (Wml), is measured. The polymerisation/depolymerisation cycle is repeated exactly as above but substituting W for V to give twice-cycled tubulin.
2. Turbidimetric Assay of Tubulin Polymerisation
Apparatus: recording spectrophotometer with a 6-position, thermostatted cuvette holder; full scale deflection=0.2 absorbance units.
In a 1 ml spectrophotometer cuvette are mixed 100 μl 10 mM GTP (Li salt) made up in BB buffer, 10 μl H2 O or DMSO-depending on selected drug solvent, BB buffer and tubulin preparation such that the final increase in A350nm is 0.15 units after 16 mins (approx. 100 μl of tubulin prep. or 2.5 mg protein) in a final volume of 1 ml at 37° C. All reagents are stored on ice.
Polymerisation is initiated by raising the temperature to 37° C. and the increase in A350nm of triplicate samples against a reference cuvette is recorded. The reference sample includes a similar incubation mixture either without tubulin or with the addition of 1 mM Ca^2+. The increase over initial A350nm 10 min after the completion of lag phase (control polymerisation is 80% complete within this time) is calculated and expressed as a percentage of the control value, for a range of drug concentrations. The drug concentration required to give a 50% change (IC50) in the control value is determined.

[6] = test system: WiDr human colon adenocarcinoma cells; test: In vitro activity against human tumour cell line WiDr (proliferation); format: cell-based; conditions: 96 h
Experimental: as §1, §2, §3, §4

[7] = LD20 (Mouse); format: in vivo; conditions: i.p. days 1, 5 and 9, CD2-F1 mice, observed up to 14 days
[8] = test system: HCT-116 human colon carcinoma cells; test: In vitro activity against human tumour cell line HCT-116 (proliferation); format: cell-based; conditions: HCT-116, 96 h
Experimental: as §1, §2, §3, §4

[9] = P388D1, 24 h exposure, 14 days colony growth, read-out: IC50 colony formation
[10] = Mus musculus, P388, ip, 200 mg/kg i.p. days 1, 5 and 9
[11] = Mus musculus, P388, ip, 675 mg/kg i.p. days 1, 5 and 9

## CCOC(=O)Nc1cn2nc(OCc3cc(OC)ccc3OC)ccc2n1 [Example 2, Ethyl N-[6-(2,5-Dimethoxybenzyloxy)imidazo[1,2-b]pyridazin-2-yl]carbamate]
[1]; P388D1, read-out: IC50 colony formation
  IC50: 0.516 nM
[2]
  IC50: 2.9 nM
[3]; Mus musculus, P388, ip
  ILS at 7.3 mg/kg: 31%
[4]
  IC50: 3.42 nM
[5]
  IC50: 140 nM
[6]
  IC50: 4.57 nM
[7]
  LD50: 5 mg/kg
[8]
  IC50: 2.8 nM

## COC(=O)Nc1cn2nc(OCc3cc(OC)ccc3OC)ccc2n1 [Example 3, Methyl N-[6-(2,5-Dimethoxybenzyloxy)imidazo[1,2-b]pyridazin-2-yl]carbamate]
[1]; [9]
  IC50: 2.15 nM
[2]; methylene blue, read-out: IC50
  IC50: 1.35 nM
[3]; Mus musculus, P388, ip, 50 mg/kg i.p. days 1, 5 and 9
  ILS at 50 mg/kg: 136%
[4]
  IC50: 1.92 nM
[5]
  IC50: 410 nM
[6]; MTT, read-out: IC50
  IC50: 0.92 nM
[7]
  LD50: 200 mg/kg
[8]; MTT, read-out: IC50
  IC50: 1.91 nM

## CCCOC(=O)Nc1cn2nc(OCc3cc(OC)c(OC)c(OC)c3)ccc2n1 [Example 4, n-Propyl N-[6-(3,4,5-trimethoxybenzyloxy)imidazo[1,2-b]pyridazin-2-yl]carbamate]
[1]; [9]
  IC50: 5.12 nM
[2]; methylene blue, read-out: IC50
  IC50: 6.63 nM
[3]; Mus musculus, P388, ip, 20 mg/kg i.p. days 1, 5 and 9
  ILS at 20 mg/kg: 44%
[4]; MTT, read-out: IC50
  IC50: 20.8 nM
[5]
  IC50: 370 nM
[6]; MTT, read-out: IC50
  IC50: 11 nM
[7]
  LD50: 20 mg/kg
[8]; MTT, read-out: IC50
  IC50: 5.45 nM

## CCCCOC(=O)Nc1cn2nc(OCc3cc(OC)c(OC)c(OC)c3)ccc2n1 [Example 5, n-Butyl N-[6-(3,4,5-trimethoxybenzyloxy)imidazo[1,2-b]pyridazin-2-yl]carbamate]
[1]; [9]
  IC50: 12.6 nM
[2]; methylene blue, read-out: IC50
  IC50: 7.34 nM
[3]; Mus musculus, P388, ip, 150 mg/kg i.p. days 1, 5 and 9
  ILS at 150 mg/kg: 61%
[4]; MTT, read-out: IC50
  IC50: 4.36 nM
[5]
  IC50: 490 nM
[6]; MTT, read-out: IC50
  IC50: 3.65 nM
[7]
  LD50: 140 mg/kg
[8]; MTT, read-out: IC50
  IC50: 3.3 nM

## COC(=O)Nc1cn2nc(OCc3cccc4ccccc34)ccc2n1 [Example 9, Methyl N-[6-(1-Naphthylmethyloxy)imidazo[1,2-b]pyridazin-2-yl]carbamate]
[3]; [10]
  ILS at 200 mg/kg: 180%
[5]
  IC50: 890 nM
[7]
  LD50: 450 mg/kg

## COC(=O)Nc1cn2nc(OCc3cc(OC)cc(OC)c3)ccc2n1 [Example 11, Methyl N-[6-(3,5-Dimethoxybenzyloxy)imidazo[1,2-b)pyridazin-2-yl]carbamate]
[1]; [9]
  IC50: 41 nM
[3]; 675 mg/kg i.p. days 1, 5 and 9
  30 Day survivors: 1/6
  60 Day Survivors: 0/6
[3]; [11]
  ILS at 675 mg/kg: 155%
[5]
  IC50: 4240 nM
[7]
  LD50: > 450 mg/kg

## COC(=O)Nc1cn2nc(OCc3cccc(C)c3)ccc2n1 [Example 12, Methyl N-[6-(3-methylbenzyloxy)imidazo[1,2-b]pyridazin-2-yl]carbamate]
[3]; [11]
  ILS at 675 mg/kg: 170%
[5]
  IC50: 1210 nM
[7]
  LD50: > 450 mg/kg

## COC(=O)N(C)c1cn2nc(OCc3cc(OC)c(OC)c(OC)c3)ccc2n1 [Example 26, Methyl N-[N-Methyl-6-(3,4,5-trimethoxybenzyloxy)imidazo[1,2-b]pyridazin-2-yl]carbamate]
[3]; Mus musculus, P388, ip, 300 mg/kg i.p. days 1, 5 and 9
  ILS at 300 mg/kg: 263%
[7]
  LD50: 450 mg/kg

## COC(=O)Nc1cn2nc(OCc3cc(OC)c(OC)c(OC)c3Br)ccc2n1 [Example 31, Methyl N-[6-(2-bromo-3,4,5-trimethoxybenzyloxy)imidazo[1,2-b]pyridazin-2-yl]carbamate]
[7]
  LD50: 165 mg/kg

## COC(=O)Nc1cn2nc(OCc3cccc(OC)c3OC)ccc2n1 [Example 32, Methyl N-[6-(2,3-dimethoxybenzyloxy)imidazo[1,2-b]pyridazin-2-yl]carbamate]
[3]; 750 mg/kg i.p. days 1, 5 and 9
  60 Day Survivors: 1/6
[3]; Mus musculus, P388, ip, 750 mg/kg i.p. days 1, 5 and 9
  ILS at 750 mg/kg: 280%
[7]
  LD50: > 450 mg/kg

## CCOc1c(OC)cc(COc2ccc3nc(NC(=O)OC)cn3n2)cc1OC [Example 33, Methyl N-[6-(3,5-dimethoxy-4-ethoxybenzyloxy)imidazo[1,2-b]pyridazin-2-yl]carbamate]
[3]; (Day 51), 200 mg/kg i.p. days 1, 5 and 9
  60 Day Survivors: 3/6
[3]; [10]
  ILS at 200 mg/kg: 240%

Source: patent US5380759A, “Methyl N-[6-(3,4,5-trimethoxybenzloxy)imidazo[1,2-b]pyridazin-2-zyl]carbamate used to treat leukemia” (priority 1987, dated 1995)
